Columns and labels:
TREK-1/AAK_T = TREK-1/AAK_T (Mus musculus, UniProt P97438); experiment: TEVC of C-terminal tail swap chimera TREK-1/AAK_T; assay type: cell-based; conditions: Xenopus oocytes
Excerpt: (§1) Given the importance of the C-terminal tail for the BL-1249 response and the fact that the C-terminal tails of K2P2.1(TREK-1) and K2P4.1(TRAAK) vary substantially (17.6% sequence similarity, 13.5% identity), we wondered if these differences could contribute to the different potencies observed in K2P2.1(TREK-1) and K2P4.1(TRAAK) BL-1249 responses. To test this possibility, we made chimeras that swapped the C-terminal tail between K2P2.1(TREK-1) and K2P4.1(TRAAK), TREK-1/AAK_T and TRAAK/EK_T. […] Despite this modest change, it is clear that the C-terminal tail alone is not sufficient to endow the K2P4.1(TRAAK) core with a K2P2.1(TREK-1)-like BL-1249 response. […]
(§2) Xenopus laevis oocytes were harvested in accordance with UCSF IACUC protocol AN129690 and digested in calcium-free ND-96 (96 mM NaCl, 2 mM KCl, 3.8 mM MgCl2) immediately following harvest, as previously described.[6],[10] […] Defolliculated stage V–VI oocytes were injected with 0.2–6.0 ng of mRNA in 50 nL, and currents were recorded 24–48 h after injection. mRNA was synthesized from plasmid DNA using mMessage mMachine Kit (T7 promoter, Ambion, Life Technologies) and purified using RNEasy Kit (Qiagen). […] Once stabilized basal currents were recorded, compounds were perfused at various concentrations in standard ND96 and currents were allowed to increase to stabilization before recording final current. […]

TRAAK/EK-1_T = TRAAK/EK-1_T (Mus musculus, UniProt O88454); experiment: TEVC of C-terminal tail swap chimera TRAAK/EK-1_T; assay type: cell-based; conditions: Xenopus oocytes
Excerpt: as §1, §2

Sequence of TRAAK/EK-1_T (O88454 1-255 limits assumed): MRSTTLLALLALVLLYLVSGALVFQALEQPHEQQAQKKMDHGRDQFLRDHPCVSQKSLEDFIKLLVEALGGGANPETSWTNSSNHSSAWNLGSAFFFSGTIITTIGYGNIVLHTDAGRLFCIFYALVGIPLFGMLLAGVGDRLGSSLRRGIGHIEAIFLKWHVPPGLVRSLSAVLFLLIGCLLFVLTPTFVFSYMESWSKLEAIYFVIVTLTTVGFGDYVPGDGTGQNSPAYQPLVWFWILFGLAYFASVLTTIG
Sequence of TREK-1/AAK_T (P97438 1-292 isoform P97438-2 limits assumed): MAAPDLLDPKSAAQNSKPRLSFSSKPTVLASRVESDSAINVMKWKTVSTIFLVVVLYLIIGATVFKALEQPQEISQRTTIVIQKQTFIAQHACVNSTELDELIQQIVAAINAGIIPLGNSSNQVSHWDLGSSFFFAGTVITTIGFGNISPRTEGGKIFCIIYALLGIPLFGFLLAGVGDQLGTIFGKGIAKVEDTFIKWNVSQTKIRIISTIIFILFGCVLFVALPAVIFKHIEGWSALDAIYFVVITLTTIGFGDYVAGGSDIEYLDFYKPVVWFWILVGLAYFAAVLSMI

EC50 (TREK-1/AAK_T): 7.7 ± 0.6 µM
EC50 (TRAAK/EK-1_T): 23 ± 4 µM
increase in sensitivity of TRAAK/EK-1_T relative to K2P4.1(TRAAK) (TRAAK/EK-1_T): ~2 fold
Compound: c1ccc(-c2nnn[nH]2)c(Nc2cccc3c2CCCC3)c1 [BL-1249, (5,6,7,8-tetrahydro-naphthalen-1-yl)-[2-(1H-tetrazol-5-yl)-phenyl]-amine]

Source: paper PMC6302903, “Protein and Chemical Determinants of BL-1249 Action and Selectivity for K2P Channels” (ACS Chemical Neuroscience, 2018)
